# Experimental data published in US9422240B2, “Partially saturated nitrogen-containing heterocyclic compound” (TAISHO PHARMACEUTICAL CO., LTD, priority 2012, dated 2016).
# Experiments:
# human PHD2 [1] = molecular target: T1, human PHD2 (Homo sapiens (Human), UniProt Q9GZT9); experiment: Test 2: human PHD2 inhibitory activity, fluorescence polarization assay of HIF-1α peptide proline hydroxylation; assay type: biochemical; settings: test compound's concentration 1 μM; Test 2, fluorescence polarization assay; read-out: Percent inhibition (% at 1 μM)
# T1 sequence (Q9GZT9 whole entry): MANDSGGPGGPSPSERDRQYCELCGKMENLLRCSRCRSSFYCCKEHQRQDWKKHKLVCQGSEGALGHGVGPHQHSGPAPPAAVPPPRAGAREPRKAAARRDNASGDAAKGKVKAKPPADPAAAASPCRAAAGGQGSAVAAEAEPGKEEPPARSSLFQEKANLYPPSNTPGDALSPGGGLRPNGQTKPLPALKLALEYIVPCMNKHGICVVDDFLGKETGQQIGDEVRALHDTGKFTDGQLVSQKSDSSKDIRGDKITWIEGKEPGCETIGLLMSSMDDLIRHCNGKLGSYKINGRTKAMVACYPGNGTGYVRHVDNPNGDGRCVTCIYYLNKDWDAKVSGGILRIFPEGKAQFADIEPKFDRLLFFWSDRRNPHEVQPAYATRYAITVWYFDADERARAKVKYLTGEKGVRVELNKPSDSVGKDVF
# Summary of the method: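 A 19-mer HIF-1α peptide served as substrate, with the reaction started by 40 ng/well human PHD2 (cell lysate of NM_022051-transfected cells) and run 20 min at 30° C. before EDTA stop. Hydroxylated product bound anti-HIF-OH antibody, read by fluorescence polarization versus no-compound control.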
# human PHD2 [2] = molecular target: T1, human PHD2; experiment: Test 1: human PHD2 inhibitory activity, [14C]-2-oxoglutarate to [14C]-succinic acid radiometric assay with HIF-1α peptide; assay type: biochemical; settings: test compound's concentration 1 μM; Test 1, [14C]-2-oxoglutarate radiometric assay; read-out: Percent inhibition (% at 1 μM)
# Summary of the method: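 Activity was measured by radiometric counting of [14C]-succinic acid formed during prolyl hydroxylation of a 19-mer HIF-1α peptide, after DNPH removal of residual [14C]-2-oxoglutarate. Baculovirus-expressed human PHD2 lysate (4 μg/well) reacted for 15 min at 37° C. Substrate-free and compound-free wells served as reference points for inhibition.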
SMILES,inhibition at 1 µM (human PHD2 [1]) [%],inhibition at 1 µM (human PHD2 [2]) [%]
CC1CN(Cc2ccc(Br)cc2)C(=O)C(C(=O)NCC(=O)O)=C1O (stereo not shown) [Ex. 1-144],85,76
O=C(O)CNC(=O)C1=C(O)CCN(Cc2ccc(Br)cc2F)C1=O [Ex. 1-145],83,88
CC(c1ccc(C(F)(F)F)cc1)N1CCC(O)=C(C(=O)NCC(=O)O)C1=O (stereo not shown) [Ex. 1-146],70,69
O=C(O)CNC(=O)C1=C(O)C2(CC2)CN(Cc2ccc(C(F)(F)F)cc2)C1=O [Ex. 1-147],88,84
CC1CC(O)=C(C(=O)NCC(=O)O)C(=O)N1Cc1ccc(Br)cc1 (stereo not shown) [Ex. 1-148],82,78
CC1CC(O)=C(C(=O)NCC(=O)O)C(=O)N1Cc1ccc(OC(F)(F)F)cc1 (stereo not shown) [Ex. 1-149],74,74
CC1(C)CC(O)=C(C(=O)NCC(=O)O)C(=O)N1Cc1ccc(Br)cc1 [Ex. 1-150],71,63
CC1(C)CC(O)=C(C(=O)NCC(=O)O)C(=O)N1Cc1ccc(OC(F)(F)F)cc1 [Ex. 1-151],63,57
O=C(O)CNC(=O)C1=C(O)CCN(Cc2ccc3c(c2)OC(F)(F)O3)C1=O [Ex. 1-152],83,82
CCC(c1ccc(C(F)(F)F)cc1)N1CCC(O)=C(C(=O)NCC(=O)O)C1=O (stereo not shown) [Ex. 1-153],63,64
O=C(O)CNC(=O)C1=C(O)CC2(CCC2)N(Cc2ccc(OC(F)(F)F)cc2)C1=O [Ex. 1-154],81,77
O=C(O)CNC(=O)C1=C(O)CC2(CCC2)N(Cc2ccc(Br)cc2)C1=O [Ex. 1-155],83,82
O=C(O)CNC(=O)C1=C(O)CC2(CCCC2)N(Cc2ccc(C(F)(F)F)cc2)C1=O [Ex. 1-156],80,70
CC1(C)CC(O)=C(C(=O)NCC(=O)O)C(=O)N1Cc1ccc(Cl)cc1 [Ex. 1-157],73,67
CC1(C)CC(O)=C(C(=O)NCC(=O)O)C(=O)N1Cc1ccc(Cl)c(Cl)c1 [Ex. 1-158],75,67
O=C(O)CNC(=O)C1=C(O)CCN(Cc2ccc(OC(F)(F)F)c(Cl)c2)C1=O [Ex. 1-159],90,78
O=C(O)CNC(=O)C1=C(O)CCN(Cc2ccc(Cl)c(OC(F)(F)F)c2)C1=O [Ex. 1-160],85,74
CC1(C)CC(O)=C(C(=O)NCC(=O)O)C(=O)N1Cc1ccc(OC(F)F)cc1 [Ex. 1-161],62,62
CC1CN(Cc2ccc(Cl)cc2)C(=O)C(C(=O)NCC(=O)O)=C1O (stereo not shown) [Ex. 1-162],77,78
CC1CN(Cc2ccc(Cl)c(Cl)c2)C(=O)C(C(=O)NCC(=O)O)=C1O (stereo not shown) [Ex. 1-163],90,84
CC1(C)CC(O)=C(C(=O)NCC(=O)O)C(=O)N1Cc1ccc(OC(F)(F)F)c(Cl)c1 [Ex. 1-164],66,49
CC1(C)CC(O)=C(C(=O)NCC(=O)O)C(=O)N1Cc1ccc(Cl)c(OC(F)(F)F)c1 [Ex. 1-165],55,42
O=C(O)CNC(=O)C1=C(O)CC2(CCC2)N(Cc2ccc(Cl)cc2)C1=O [Ex. 1-166],86,82
O=C(O)CNC(=O)C1=C(O)CC2(CCC2)N(Cc2ccc(Cl)c(Cl)c2)C1=O [Ex. 1-167],88,80
COc1ccc(CN2C(=O)C(C(=O)NCC(=O)O)=C(O)CC2(C)C)cc1OC(F)(F)F [Ex. 1-169],43,28
Cc1cc(CN2C(=O)C(C(=O)NCC(=O)O)=C(O)CC2(C)C)cc(C)c1OC(F)F [Ex. 1-170],45,35
